According to patent publication US20060269924A1, “Modulation of telomere-initiated cell signaling” (TRUSTEES OF BOSTON UNIVERSITY, priority 2003, published 2006):
{P} = phosphate

How the values were obtained:
[1] = test system: fibroblasts; test: Degradation of the telomere 3′ overhang in fibroblasts; type: cell-based; conditions: up to 1 week (data not shown)
[2] = test system: HT-1080 human fibrosarcoma cells; test: Clonogenic assay; type: cell-based; conditions: HT-1080, 40 μM for one week, then replated 2 weeks without treatment
Method: Cells were treated with diluent, 40 μM T-oligo or complementary oligo for one week, and then assayed. FIG. 15a: Appearance of stained dishes. FIG. 15b: Quantification of clonogenic capacity. Colonies of triplicate cultures were counted and plotted as percentage of diluent treated control.
Human fibrosarcoma cells were treated with diluent alone, 40 μM T-oligo or 40 μM complementary oligo for one week and were then trypsinized and counted. 300 cells were seeded into 60 mm culture dishes in triplicate and then incubated in complete medium for 2 weeks with medium changed twice per week. Subsequently, the cells were fixed for 5 min in 100% methanol. The methanol was then removed and the culture dishes were rinsed briefly with water. The colonies were stained for 10 min in 4% (w/v) methylene blue solution in PBS, washed once again with water, and then counted.
To determine the long-term effect of T-oligo treatment on cell growth, HT-1080 human fibrosarcoma cells were treated with either diluent alone, 40 μM T-oligo or 40 μM complementary control oligo for one week and then an equal number of cells were replated and medium was changed twice per week for 2 weeks with no further treatment, and then stained with methylene blue (FIG. 15a).

[3] = test system: cdk4^R24C R2F fibroblasts; test: SA-β-Gal staining, cdk4^R24C R2F fibroblasts; type: cell-based, human; conditions: 40 μM, 1 week
Method: FIG. 12a: Immunoblot analysis of p53DD and cdk4^R24C expression. Cells were collected for protein analysis by western blot using 30 μg total protein and probed for total p53 and cdk4. Lanes 1, 2, 3 and 4 contain protein samples from R2F, R2F (p53DD), R2F (cdk4^R24C) and R2F (p53DD/cdk4^R24C) fibroblasts, respective. β-actin was used as a loading control. FIG. 12b: Contribution of p53 and pRb pathways to T-oligo-induced SA-β-Gal activity. R2F fibroblasts and derived transductants were treated with diluent or 40 μM T-oligo for one week and then assayed for SA-β-Gal activity. FIG. 12c: Quantitative analysis of SA-β-Gal positive cells. Cells expressing SA-β-Gal activity were counted and presented as percentage of total cells in the cultures. Averages and standard deviations were calculated from 3 representative fields from each of 3 independent experiments.
R2F newborn dermal fibroblasts and derived p53DD, […] and p53DD/cdk4^R24C transductants (a generous gift from Dr. James G. Rheinwald of Harvard Medical School) lack a functional p53 pathway, pRb pathway, and both pathways respectively.
Cells were treated once with diluent alone, 40 μM T-oligo or 40 μM complementary oligo for 1 week without re-feeding. […]
Cells were treated with either diluent or 40 μM T-oligo for 1 week and then assessed for SA-β-Gal activity. […]

For “pGTTAGGGTTAG (DNA, 5' {P}, backbone not given here; listed as Homo sapiens) [Oligonucleotide 11mer-1]”, the “degradation of the telomere 3′ overhang” value [1] was “does not result in degradation”, the clonogenic capacity [2] was 5.7±1.9 % of diluent treated control and the SA-β-Gal positive cells [3] was 60±5%.
